A short description of series [1]: Survival / mortality of NBPI mice during treatment. Type of series: in vivo. The protocol:
(§1) Mice were treated either with saline (as the vehicle; 0.9% Sodium Chloride Injection USP, Hospira), [Gly^14]-Humanin G ([Gly14]-HN; 1 μg/dose; H6161, Sigma-Aldrich) alone or co-administered with Bortezomib (0.2-0.4 mg/kg body weight; 5043140001, Sigma-Aldrich) by IP injection starting immediately post-operative or delayed by 3/7 days (P8/12 start), and injected every other day with sacrifice at 4 weeks post-NBPI (24 h following the last IP injection). The use of littermate controls was rejected due to the risk of treatment cross-contamination either through direct contact or by ingestion from their mother, and [Gly14]-HN was included to mitigate the toxicity that has been reported for Bortezomib^47. Deficits in motor function were confirmed as described above, and measurement of shoulder and elbow range of motion was measured immediately post-sacrifice^16 with blinding to the treatment group. Mouse limbs harvested 4 weeks post-NBPI were positioned on cork for processing of bilateral brachialis muscles for DIC microscopy as described above for measurement of muscle sarcomere length.

The subject of series [2] is elbow and shoulder contractures after neonatal brachial plexus injury (NBPI). The series is described as follows: Elbow and shoulder contracture severity (range of motion) in mouse model of NBPI. It counts as in vivo, mice. The settings on record: for contracture severity (efficacy): compared to 0.4 mg/kg from P5; for shoulder and elbow contracture severity: 4 weeks after NBPI.
Description: All animal procedures were approved by Cincinnati Children's Hospital Medical Center's Institutional Animal Care and Use Committee. Unilateral global (C5-T1) NBPIs were created by surgical extraforaminal nerve root excision in 5-day-old CD-1 mice (Charles River) under general anesthesia. Deficits in motor function were validated post-operatively and again prior to sacrifice to ensure only animals with permanent motor deficits were included for analysis. Elbow and shoulder (where indicated) range of motion were measured immediately post-sacrifice using a validated digital photography technique in order to confirm the presence of elbow flexion and shoulder internal rotation contractures^16. Mice were euthanized by CO2 asphyxiation, except at postnatal day 5 and 12 time points, where isoflurane overdose was utilized.
as §1

Series [3] has as its system brachialis muscle after NBPI. Put plainly: Brachialis sarcomere length (muscle length) 4 weeks post-NBPI. It counts as in vivo, mice. The conditions noted are these: 0.3 mg/kg, P8 to P33. The protocol: Sarcomere lengths were measured from single muscle fibers, acquiring 6 images per fiber by differential interference contrast (DIC) microscopy on a Nikon Eclipse Ti-E inverted microscope with the Plan Apo λ40× objective (Nikon Instruments), Xyla 4.2 megapixel, 16-bit sCMOS monochromatic camera (Andor/Oxford Instruments) and NIS-Elements imaging software (Nikon Instruments). A series of 10 sarcomeres were measured per image in AxioVision software and an average sarcomere length was then determined for each fiber.
Mouse limbs harvested 4 weeks post-NBPI were processed on cork at 90° elbow flexion (confirmed by digital x-ray) prior to fixation in 10% NBF as described previously^16. […]
Mice were treated either with saline (as the vehicle; 0.9% Sodium Chloride Injection USP, Hospira), [Gly^14]-Humanin G ([Gly14]-HN; 1 μg/dose; H6161, Sigma-Aldrich) alone or co-administered with Bortezomib (0.2-0.4 mg/kg body weight; 5043140001, Sigma-Aldrich) by IP injection starting immediately post-operative or delayed by 3/7 days (P8/12 start), and injected every other day with sacrifice at 4 weeks post-NBPI (24 h following the last IP injection). […] Deficits in motor function were confirmed as described above, and measurement of shoulder and elbow range of motion was measured immediately post-sacrifice^16 with blinding to the treatment group. […]

Consider two compounds from US20210361683A1, “COMPOSITIONS AND METHODS FOR THE TREATMENT OF MUSCLE CONTRACTURES” (Children's Hospital Medical Center, priority 2018, published 2021).

Entries after “also recorded” stand apart in the source; their conditions may differ.

On to `CC(C)C[C@H](NC(=O)[C@H](Cc1ccccc1)NC(=O)c1cnccn1)B(O)O` [Bortezomib, ([1R)-3-methyl-1-[[(2S)-1-oxo-3-phenyl-2-[(pyrazinylcarbonyl)amino]propyl]amino]butyl]-boronic acid], for which the mortality result in series [1] (0.2 mg/kg, P5 to P33) is “eliminated mortality”; in series [1] (0.3 mg/kg, P5 to P33, compared to 0.4 mg/kg from P5), “partially improved mortality”; in series [1] (0.4 mg/kg every other day, P5 to P33), “caused mortality, mostly in the first week of treatment”; in series [1] (0.4 mg/kg, P8 to P33, compared to 0.4 mg/kg from P5), “partially improved mortality”; in series [1] (0.4 mg/kg, P12-P33), “eliminated mortality”. Besides, in series [1] (0.3 mg/kg, P8 to P33), the “mortality (early death)” value is listed as “minimal early death”. For the same compound, the contracture severity result in series [2] (0.2 mg/kg, P5 to P33) is listed as “less severe contractures compared to saline they were not as efficacious as 0.4 mg/kg Bortezomib administered beginning at P5”; in series [2] (0.4 mg/kg, P12-P33) it was “less severe contractures compared to saline they were not as efficacious as 0.4 mg/kg Bortezomib administered beginning at P5”. Further, the “contracture severity (efficacy)” value in series [2] (0.3 mg/kg, P5 to P33) is “maintained efficacy”; in series [2] (0.4 mg/kg, P8 to P33), “maintained efficacy”. Moreover, the prevention of contractures entry in series [2] (0.3 mg/kg, P8 to P33) is on record as “optimal efficacy in prevention of contractures; also recorded: lack of contractures”. In series [2] (0.4 mg/kg every other day IP, P5 to P33, co-administered with [Gly14]-Humanin, vs saline), the “shoulder and elbow contracture severity” value was “significantly reducing shoulder and elbow contracture severity; also recorded: corrected”. The “prevention of contractures, dose dependence” value in series [2] (0.2-0.4 mg/kg following NBPI) is on record as “prevents contractures in a dose-dependent manner”. Moreover, the “reduction in the sarcomere elongation caused by NBPI (rescue of brachialis length)” value in series [3] came out at 70%. In addition, the “sarcomere length in the brachialis” value in series [3] is “preserves muscle length”.
For the compound [Gly^14]-Humanin, the “shoulder and elbow contracture severity” value in series [2] ([Gly14]-Humanin alone, 1 μg/dose IP every other day) is recorded as “no effect alone”.
